Laboratory results from patent US10472326B2, “PQSR modulators” (HELMHOLTZ-ZENTRUM FÜR INFEKTIONSFORSCHUNG GMBH, priority 2014, dated 2019).
“Also recorded” adds a separate entry of the source. Read-outs that look alike come from different tables or passages of the source. Marks after values point to notes of the source that are not given here.

Legend:
Pseudomonas aeruginosa [1] = settings: cited from earlier work
P. aeruginosa PA14 [2] = test: Pyocyanin assay; assay type: cell-based; settings: for Reduction of Pyocyanin: PA14
Protocol: For analysis of pyocyanin formation, cultivation procedure was the same as for HHQ determination with the exception of using PPGAS medium. Pyocyanin produced by PA14 was quantified using the method of Essar et al. with some modifications, as described in detail by Klein et al.. Briefly, 900 μL of each culture were extracted with 900 μL of chloroform and 800 μL of the organic phase re-extracted with 250 μL of 0.2 M HCl. OD520 was measured in the aqueous phase using FLUOstar Omega (BMG Labtech, Ortenberg, Germany). For each sample, cultivation and sample work-up were performed in triplicates. Inhibition values of pyocyanin formation were normalized to OD600.

P. aeruginosa PA14 [3] = test: Determination of extracellular PQS levels; assay type: cell-based; settings: compd. at 15 μM
Protocol: Quantification of PQS produced by P. aeruginosa PA14 was performed according to the method of Maurer et al.. For each sample, cultivation and sample work-up were performed in triplicates. Inhibition values of PQS formation were normalized to OD600.

PqsR = target: T1, PqsR (Pseudomonas aeruginosa, UniProt Q9I4X0); test: cell-based; settings: read-out: Inhibition of PqsR stimulation induced by 50 nM PQS in the presence of test compd. (full inhibition = 1.00)
T1 construct: expressed in transfected cells; host or cells: E. coli DH5α carrying plasmid pEAL08-2
T1 sequence (Q9I4X0 whole entry): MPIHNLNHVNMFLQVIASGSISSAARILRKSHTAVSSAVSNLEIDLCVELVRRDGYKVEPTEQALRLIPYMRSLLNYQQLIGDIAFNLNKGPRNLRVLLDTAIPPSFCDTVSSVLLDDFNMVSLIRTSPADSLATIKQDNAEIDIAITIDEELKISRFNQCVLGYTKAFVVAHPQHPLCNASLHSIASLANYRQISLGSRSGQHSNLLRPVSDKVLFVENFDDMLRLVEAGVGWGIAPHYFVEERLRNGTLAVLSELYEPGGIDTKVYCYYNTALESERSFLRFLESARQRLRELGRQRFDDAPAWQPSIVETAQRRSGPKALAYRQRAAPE
Protocol: The ability of the compounds to either stimulate or antagonize the PqsR-dependent transcription was analysed as previously described using a β-galactosidase reporter gene assay in E. coli expressing PqsR. Briefly, a culture of E. coli DH5α cells containing the plasmid pEAL08-2, which encodes PqsR under the control of the tac promoter and the β-galactosidase reporter gene lacZ controlled by the pqsA promoter, were co-incubated with test compound. Antagonistic effects of compounds were assayed in the presence of 50 nM PQS. After incubation, β-galactosidase activity was measured spectralphotometrically at OD420 nm using POLARstar Omega (BMG Labtech, Ortenberg, Germany) and expressed as percent stimulation of controls. For the determination of IC50 values, compounds were tested at least at eight different concentrations.

clinical isolate MHH9639 = test: Biofilm growth assay, clinical isolate MHH9639; assay type: cell-based, P. aeruginosa; settings: added to 24 h old biofilms, final concentration 100 μM
P. aeruginosa PA14 [4] = test: Biofilm growth assay, PA14; assay type: cell-based; settings: added to 24 h old biofilms, final concentration 100 μM
Protocol: Static biofilms at the bottom of 96 well microtiter plates were grown with small modifications as previously described. In brief, overnight P. aeruginosa LB cultures of PA14 were adjusted to an OD600 of 0.002 with fresh medium and transferred into a half-area 96 well μClear plate (Greiner Bio-One, 100 μL/well). The plate was covered with an air-permeable foil and incubated at 37° C. in a chamber with humid atmosphere. After 24 h, a staining solution including Syto9 and propidium iodide (LIVE/DEAD BacLight Bacterial Viability kit, Molecular Probes/Invitrogen) and the test compound solved in DMSO was added to the biofilms (final concentration 100 μM, 1% DMSO (v/v)) and biofilms were further incubated for 24 h at 37° C. After in total 48 h, biofilm stacks were acquired in the center of each well (step size: 3 μm) using an automated confocal microscope (TCS SP8, Leica Microsystems) equipped with an ×40/1.10 water objective. The acquired image stacks were processed and analyzed with a customized analysis solution for the Developer XD2 (Definiens) based on a previously described algorithm. 3D-projections of the biofilms are visualized with the software IMARIS (version 7.6.5, Bitplane).

P. aeruginosa biofilm = settings: background statement; cited from earlier work
P. aeruginosa infection [5] = settings: cited from earlier work
P. aeruginosa PA14 [6] = settings: in cellulo; ref. [20]; strain not given; read-out: IC50, inhibition of virulence factor pyocyanin production; cited from earlier work
P. aeruginosa PA14 [7] = settings: strain not given, cited from earlier work
P. aeruginosa infection [8] = settings: cited from earlier work; remark: listed apart in the source
Pseudomonas aeruginosa [9] = settings: cited from earlier work; remark: listed apart in the source

Compound | inhibition at 0.05 µM (PqsR) | inhibition at 5 µM (PqsR) | other results
Nc1cccc(F)c1C(=O)O [Compound 6FABA] | – | – | IC50 (Pseudomonas aeruginosa [1]; PqsA inhibitor, refs [14, 16, 22], read-out: IC50, production of signal molecules HHQ and PQS): ~100 µM
CCCCCOCc1cc(=O)c2cc(C(F)(F)F)ccc2[nH]1 [Ref. 4, 2-(Pentyloxymethyl)-6-(trifluoromethyl)quinolin-4(1H)-one, reference compound] | 29% | 100% | Reduction of Pyocyanin (P. aeruginosa PA14 [2]; compd. at 15 μM): 29%; Reduction of PQS (P. aeruginosa PA14 [3]): 21%
CCCCCCCc1cc(=O)c2cc(C(F)(F)F)ccc2n1C [Ref. 1, 2-heptyl-1-methyl-6-(trifluoromethyl)quinolin-4(1H)-one, reference compound] | 31% | 100% | Reduction of Pyocyanin (P. aeruginosa PA14 [2]; compd. at 15 μM): 58%; Reduction of PQS (P. aeruginosa PA14 [3]): 8.9%
CCCCCCCc1[nH]c2ccccc2c(=O)c1C(=O)NO [Compound 8] | 15% | 29% | Biofilm formation / biovolume of the biofilms (clinical isolate MHH9639): strongly inhibited; also recorded: markedly reduced; Biofilm formation / biovolume of the biofilms (P. aeruginosa PA14 [4]): strongly inhibited; also recorded: markedly reduced; IC50 (P. aeruginosa PA14 [2]; Pseudomonas aeruginosa, PA14, read-out: IC50, production of the virulence factor pyocyanin): ~12 µM; Reduction of Pyocyanin (P. aeruginosa PA14 [2]; determined at 12.5 μM): 51^e %
CCCCCCCc1[nH]c2ccc([N+](=O)[O-])cc2c(=O)c1C(=O)OCC [Compound 2, ethyl 2-heptyl-6-nitro-4-oxo-1,4-dihydroquinoline-3-carboxylate] | -8% | 20% | –
CCOCCCCc1[nH]c2ccc([N+](=O)[O-])cc2c(=O)c1C(=O)OCC [Compound 3] | 2% | 27% | –
CCCCCCCc1[nH]c2ccccc2c(=O)c1C(=O)OCC [Compound 4] | 18% | 32% | –
CCCCCCCc1[nH]c2ccc([N+](=O)[O-])cc2c(=O)c1C(N)=O [2-heptyl-6-nitro-4-oxo-1,4-dihydroquinoline-3-carboxamide] | – | – | Inhibition of biofilm formation (P. aeruginosa biofilm): not being able to inhibit biofilm formation; Reduction of HHQ production (Pseudomonas aeruginosa [1]; at 15 μM, ref. [20]): 54%; Protection of larvae from lethal P. aeruginosa infection (P. aeruginosa infection [5]; at 22 nM corresponding to 7.3 ng g^−1 body weight, ref. [20]): full protection; Toxicity in animal model (P. aeruginosa infection [5]; in vivo): no sign of toxicity; IC50 (P. aeruginosa PA14 [6]): 2 µM; Reduction of PQS production (P. aeruginosa PA14 [7]; at 15 μM, ref. [20]): 37%; Toxicity in animal model (P. aeruginosa infection [8]; in vivo): no sign of toxicity; Protection of nematodes from lethal P. aeruginosa infection (P. aeruginosa infection [8]; ref. [20]): strong protection
CCCCCCCc1[nH]c2ccncc2c(=O)c1C(=O)O [Compound 7, 2-heptyl-4-oxo-1,4-dihydro-1,6-naphthyridine-3-carboxylic acid] | 6% | 20% | –
CCCCCCCc1cc(=O)c2cnccc2[nH]1 [Ref. 9, 2-Heptyl-1,6-naphthyridin-4(1H)-one, reference compound] | 8% | 2% | –
CCCCCCCc1[nH]c2ccccc2c(=O)c1CO [Compound 6] | 5% | 28% | –
CCCCCCCc1[nH]c2ccc([N+](=O)[O-])cc2c(=O)c1C(=O)NO [Compound 10, 2-heptyl-N-hydroxy-6-nitro-4-oxo-1,4-dihydroquinoline-3-carboxamide] | 30% | 78% | Reduction of Pyocyanin (P. aeruginosa PA14 [2]; determined at 12.5 μM): 57^e %
CCCCCCCc1[nH]c2ccncc2c(=O)c1C(=O)OCC [Compound 5] | 24% | 76% | –
CCCCCCCc1[nH]c2ccc([N+](=O)[O-])cc2c(=O)c1C(=O)O [Compound 12, 2-heptyl-6-nitro-4-oxo-1,4-dihydroquinoline-3-carboxylic acid] | 11% | 34% | –
CCCCCCCc1[nH]c2ccc([N+](=O)[O-])cc2c(=O)c1CO [Compound 1, 2-heptyl-3-(hydroxymethyl)-6-nitroquinolin-4(1H)-one] | 45% | 100% | Reduction of Pyocyanin (P. aeruginosa PA14 [2]; compd. at 15 μM): 83%; Reduction of PQS (P. aeruginosa PA14 [3]): 33%
COC(=O)c1ccccc1N [methyl anthranilate] | – | – | PQS formation (P. aeruginosa PA14 [7]; at millimolar concentrations, ref. [12]): inhibit PQS formation; Production of the virulence factor elastase (Pseudomonas aeruginosa [9]): inhibit
CCCCCCCc1[nH]c2ccccc2c(=O)c1[N+](=O)[O-] [Compound 9, 2-heptyl-3-nitroquinolin-4(1H)-one] | 14% | 17% | –
